Among the data in patent US20250163104A1, “MACROCYCLIC IMMUNOMODULATORS” (priority 2021, published 2025) are IC50 values, retold here.

The experiment deals with T1, human PD-1 / PD-L1-Ig binding on Jurkat cell line over-expressing human PD-1 (Jurkat-PD-1) (Homo sapiens, UniProt Q15116).
T1 construct: expressed in transfected cells; host or cells: Jurkat
Description: Jurkat-PD-1 Cell Binding High-Content Screening Assay (CBA). Format: cell-based. The settings on record: Jurkat-PD-1 cells, PE-labeled PD-L1-Ig 20 nM final; read-out: Jurkat HPD1_PDL1 IC50. The gist of the method:
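Read-out: high-content imaging of PE-tagged PD-L1-Ig bound to Jurkat cells overexpressing human PD-1, after fixation with 4% paraformaldehyde and Hoechst 33342 nuclear staining. Ligand was used at 20 nM final for 1 hour, after a 2 h compound exposure at 37° C in serum-containing DMEM.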

pIC50: −log10 of the molar value. Where a SMILES comes first, the peptide text is derived from it. Bridges are numbered along the chain shown (N, C = ends). [ ]: non-standard residue; d: D form. The star is where a group is joined. Phe(4-COOH) = N[C@@H](Cc1ccc(C(=O)O)cc1)C(=O)O; Bip = N[C@@H](Cc1ccc(-c2ccccc2)cc1)C(=O)O; Phe(3-Me) = Cc1cccc(C[C@H](N)C(=O)O)c1; Cha = N[C@@H](CC1CCCCC1)C(=O)O; Cit = NC(=O)NCCC[C@H](N)C(=O)O; dCha = N[C@H](CC1CCCCC1)C(=O)O; Carboxymethyl = O=C(O)C*; Nle = CCCC[C@H](N)C(=O)O; Orn = NCCC[C@H](N)C(=O)O; Dab = NCC[C@H](N)C(=O)O

T1 sequence (Q15116 25-288): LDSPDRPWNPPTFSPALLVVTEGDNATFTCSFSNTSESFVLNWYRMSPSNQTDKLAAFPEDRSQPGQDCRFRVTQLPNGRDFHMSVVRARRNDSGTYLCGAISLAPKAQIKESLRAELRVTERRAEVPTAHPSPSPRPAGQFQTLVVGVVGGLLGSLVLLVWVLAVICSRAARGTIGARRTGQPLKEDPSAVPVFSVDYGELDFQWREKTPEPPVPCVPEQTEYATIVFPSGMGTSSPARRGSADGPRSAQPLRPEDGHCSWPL

What is called pIC50 is the IC50 on a negative log10 scale, so that one unit is a factor of ten. In the case of `Cc1cccc(C[C@@H]2NC(=O)[C@H](CC(=O)O)NC(=O)[C@H](Cc3ccc(O)cc3)NC(=O)[C@H](CC(N)=O)NC(=O)CSC[C@@H](C(N)=O)NC(=O)[C@H]([C@@H](C)O)NC(=O)[C@H](C(C)C)NC(=O)[C@H](CC(C)C)NC(=O)[C@H](CCN)NC(=O)[C@@H](CC(C)C)NC(=O)[C@H](CCCN)NC(=O)[C@H](C(C)C)NC(=O)[C@H](Cc3ccc(-c4ccccc4)cc3)NC(=O)[C@H](C(C)C)NC2=O)c1` [Compound 1648] ({CH2CO}-NYD[Phe(3-Me)]V[Bip]V[Orn][dL][Dab]LVTC-NH2; thioether N-14), the pIC50 was 7.01.

For the compound `CC(C)C[C@@H]1NC(=O)[C@H](CCCCN)NC(=O)[C@@H](CC(C)C)NC(=O)[C@H](CCN)NC(=O)[C@H](Cc2cnc[nH]2)NC(=O)[C@H](Cc2ccc(-c3ccccc3)cc2)NC(=O)[C@H](C(C)C)NC(=O)[C@H](Cc2c[nH]c3ccccc23)NC(=O)[C@H](CC(=O)O)NC(=O)[C@H](Cc2ccc(O)cc2)NC(=O)[C@H](CC(N)=O)NC(=O)CSC[C@@H](C(=O)NCC(N)=O)NC(=O)[C@H]([C@@H](C)O)NC(=O)[C@H](C(C)C)NC1=O` [Compound 1140] ({CH2CO}-NYDWV[Bip]H[Dab][dL]KLVTCG-NH2; thioether N-14), the pIC50 is 7.24.

Regarding `CCCC[C@@H]1NC(=O)[C@H](CCN)NC(=O)[C@@H](CC(C)C)NC(=O)[C@H](CCCN)NC(=O)[C@H](CCCNC(N)=O)NC(=O)[C@H](Cc2ccc(-c3ccccc3)cc2)NC(=O)[C@H](CC(C)C)NC(=O)[C@H](Cc2cccc(C)c2)NC(=O)[C@H](CC(=O)O)NC(=O)[C@H](Cc2ccc(O)cc2)NC(=O)[C@H](CC(N)=O)NC(=O)CSC[C@@H](C(=O)N[C@@H](C)C(N)=O)NC(=O)[C@H]([C@@H](C)O)NC(=O)[C@H](C(C)C)NC1=O` [Compound 1307] ({CH2CO}-NYD[Phe(3-Me)]L[Bip][Cit][Orn][dL][Dab][Nle]VTCA-NH2; thioether N-14), the pIC50 is 7.43.

With `CC[C@@H]1NC(=O)[C@H](Cc2ccc(-c3ccccc3)cc2)NC(=O)[C@H](C(C)C)NC(=O)[C@H](Cc2cccc(C)c2)NC(=O)[C@H](CC(=O)O)NC(=O)[C@H](Cc2ccc(C(=O)O)cc2)NC(=O)[C@H](Cc2ccncc2)NC(=O)CSC[C@@H](C(=O)N[C@@H](C)C(N)=O)NC(=O)[C@H]([C@@H](C)O)NC(=O)[C@H](C(C)C)NC(=O)[C@H](CC2CCCCC2)NC(=O)[C@H](CCN)NC(=O)[C@@H](CC(C)C)NC(=O)[C@H](CCCN)NC1=O` [Compound 1619], the pIC50 is 7.84.

Take `CC(C)C[C@H]1NC(=O)[C@H](CCCN)NC(=O)[C@H](CCC(=O)O)NC(=O)[C@H](Cc2ccc(-c3ccccc3)cc2)NC(=O)[C@H](C(C)C)NC(=O)[C@H](Cc2c[nH]c3ccccc23)NC(=O)[C@H](CC(=O)O)NC(=O)[C@H](Cc2ccc(-c3cccc(C(=O)O)c3)cc2)NC(=O)[C@H](CN)NC(=O)CSC[C@@H](C(=O)N[C@@H](C)C(N)=O)NC(=O)[C@H]([C@@H](C)O)NC(=O)[C@H](C(C)C)NC(=O)[C@H](CC2CCCCC2)NC(=O)[C@H](CCN)NC1=O` [Compound 2162]: the pIC50 was 8.11.

Take `CC(C)[C@@H]1NC(=O)[C@H](Cc2c[nH]c3ccccc23)NC(=O)[C@H](CC(=O)O)NC(=O)[C@H](Cc2ccc(C(=O)O)cc2)NC(=O)[C@H](Cc2ccc(OCC(=O)O)cc2)NC(=O)CSC[C@@H](C(=O)N[C@@H](C)C(N)=O)NC(=O)[C@H]([C@@H](C)O)NC(=O)[C@H](C(C)C)NC(=O)[C@H](CC2CCCCC2)NC(=O)[C@H](CCN)NC(=O)[C@@H](CC2CCCCC2)NC(=O)[C@H](CCCN)NC(=O)[C@H](CCCNC(N)=O)NC(=O)[C@H](Cc2ccc(-c3ccccc3)cc2)NC1=O` [Compound 1642] ({CH2CO}-Y(Carboxymethyl)[Phe(4-COOH)]DWV[Bip][Cit][Orn][dCha][Dab][Cha]VTCA-NH2; thioether N-14): the pIC50 was 7.52.
